Consider 3 substances from PMC4660977 (Molecular pharmaceutics, 2015).

For one data set, the target named is GLP-1R (Homo sapiens, UniProt P43220). Kind of data set: GLP-1R agonism, AKAR3 FRET reporter assay in HEK-GLP-1R cells. The note with it: undigested. In kind it is cell-based. For orientation: Reporter assays use an easily measured gene product as a stand-in for the process of interest.
The next data set concerns the target T1, meprin β (Homo sapiens, UniProt Q16820).
T1 sequence (Q16820 62-701): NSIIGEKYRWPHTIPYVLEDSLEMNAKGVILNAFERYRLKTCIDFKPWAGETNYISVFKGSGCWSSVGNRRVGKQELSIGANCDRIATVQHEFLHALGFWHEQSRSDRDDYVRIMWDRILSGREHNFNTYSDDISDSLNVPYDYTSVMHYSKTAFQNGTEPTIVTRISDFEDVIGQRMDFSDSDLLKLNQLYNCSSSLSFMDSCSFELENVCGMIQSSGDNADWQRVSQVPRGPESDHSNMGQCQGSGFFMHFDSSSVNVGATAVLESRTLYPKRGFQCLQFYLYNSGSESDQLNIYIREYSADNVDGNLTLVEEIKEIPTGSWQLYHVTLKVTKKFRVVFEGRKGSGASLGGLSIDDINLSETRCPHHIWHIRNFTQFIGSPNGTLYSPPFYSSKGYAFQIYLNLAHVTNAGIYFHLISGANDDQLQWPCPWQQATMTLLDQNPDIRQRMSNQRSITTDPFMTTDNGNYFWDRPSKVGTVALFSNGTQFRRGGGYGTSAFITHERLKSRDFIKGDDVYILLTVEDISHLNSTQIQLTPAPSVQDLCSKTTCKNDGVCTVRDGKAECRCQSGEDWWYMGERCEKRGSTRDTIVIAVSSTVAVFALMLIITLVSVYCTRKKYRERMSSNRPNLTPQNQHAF
The experiment in a line: Meprin β digestion, remaining function at GLP-1R. In kind it is in vitro ADME. The note with it: meprin β concentrations greater than 3 µg/mL; 30 min, 100 nM; AKAR3 FRET.

Data set [1] addresses intrinsic factor (IF) (human) (UniProt P27352). The experiment in a line: radioligand binding.
The target in data set [2] is glucagon-like peptide-1 receptor (GLP-1R) (UniProt P43220).
Chain of glucagon-like peptide-1 receptor (GLP-1R) (P43220 24-463): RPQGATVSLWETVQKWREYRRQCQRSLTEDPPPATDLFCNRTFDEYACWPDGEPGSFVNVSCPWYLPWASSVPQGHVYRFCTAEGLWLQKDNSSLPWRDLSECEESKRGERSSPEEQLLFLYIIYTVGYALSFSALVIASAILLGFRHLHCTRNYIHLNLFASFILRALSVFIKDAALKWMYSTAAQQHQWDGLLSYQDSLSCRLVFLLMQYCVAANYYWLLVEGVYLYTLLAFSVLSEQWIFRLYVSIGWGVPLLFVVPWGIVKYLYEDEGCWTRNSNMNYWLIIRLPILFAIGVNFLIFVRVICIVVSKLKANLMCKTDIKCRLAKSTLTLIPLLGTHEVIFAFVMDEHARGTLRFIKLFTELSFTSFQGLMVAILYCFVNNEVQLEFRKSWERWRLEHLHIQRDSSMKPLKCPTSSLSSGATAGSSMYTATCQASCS

Chain of intrinsic factor (IF) (human) (P27352 19-417): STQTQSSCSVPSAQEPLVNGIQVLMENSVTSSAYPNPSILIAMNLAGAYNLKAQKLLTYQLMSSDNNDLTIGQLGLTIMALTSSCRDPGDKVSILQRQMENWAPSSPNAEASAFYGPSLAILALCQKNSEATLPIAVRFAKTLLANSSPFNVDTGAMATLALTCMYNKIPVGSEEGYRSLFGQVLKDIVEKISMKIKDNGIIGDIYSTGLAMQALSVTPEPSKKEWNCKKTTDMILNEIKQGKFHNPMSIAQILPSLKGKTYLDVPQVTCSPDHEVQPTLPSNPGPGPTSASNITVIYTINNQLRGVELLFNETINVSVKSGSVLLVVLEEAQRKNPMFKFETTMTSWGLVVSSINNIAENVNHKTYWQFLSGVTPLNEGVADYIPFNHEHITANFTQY
Chain of GLP-1R (P43220 24-463): as the sequence (P43220 24-463) above

On to (AzidoK12)-Ex-4 [Compound 1], for which the “% change in FRET at 100 nM” value on GLP-1R is −12 ± 0.01%. Further, the “function after meprin β digestion” value on meprin β is on record as “No function”. In data set [1], “B12-Ex-4 conjugate (4) (from UniProt P26349 48-87) (peptide)” returned an IF binding (constant not named) of 6.8 nM. On to “IF-B12-Ex-4 complex (IF-4) (from UniProt P27352 19-417)”, for which, in data set [2], the % change in FRET at 100 nM (AKAR3 in HEK-GLP-1R cells) is -12%.
